# Source: US9040525B2, “Cyclic amide derivative” (MOCHIDA PHARMACEUTICAL CO., LTD., priority 2010, dated 2015)
# Structures can show the parent of a compound that is named as a salt.
# Target: T1, GPR40 of human origin (Homo sapiens, UniProt O14842)
# T1 construct: expressed in transfected cells
# Assay: Agonist action on GPR40 of human origin (Ca2+ fluorescence, CHO cell strain stably expressing GPR40)
# Type: cell-based
# Settings: fluctuation of Ca2+ concentration
# Description: A CHO cell strain stably expressing GPR40 of human origin was used to determine the agonist action of a title compound. This cell strain was seeded in a clear bottom 96 well plate at 2×10^4 cells/100 μL/well. The cell strain was cultured in a CO2 incubator overnight using a Ham's F-12 medium containing a 10% fetal bovine serum, 100 U/mL penicillin, 0.1 mg/mL streptomycin, and 400 μg/mL. Geneticin. Calcium 4 Assay Kit (Molecular Devices) was used as a fluorescent calcium indicator. One mL of 77 mg/mL probenecid (Invitrogen) was added to 100 mL of a calcium indicator solution to prepare a solution (loading solution) mixed with a 20 mM HEPES-containing Hanks' balanced salt solution (HBSS) in equal proportions. To the cells from which the culture solution was removed, 200 μL of the loading solution was added, and the cells were cultured in a CO2 incubator for 1 hour. The title compound was diluted with a 20 mM HEPES-containing HBSS and was added to the cells by 50 μL, and the fluctuation of the Ca^2+concentration was measured by an intracellular ion analyzer. The EC50 value of the title compound was calculated using the dose-response curve of fluorescence intensity variation.
# T1 sequence (O14842 whole entry): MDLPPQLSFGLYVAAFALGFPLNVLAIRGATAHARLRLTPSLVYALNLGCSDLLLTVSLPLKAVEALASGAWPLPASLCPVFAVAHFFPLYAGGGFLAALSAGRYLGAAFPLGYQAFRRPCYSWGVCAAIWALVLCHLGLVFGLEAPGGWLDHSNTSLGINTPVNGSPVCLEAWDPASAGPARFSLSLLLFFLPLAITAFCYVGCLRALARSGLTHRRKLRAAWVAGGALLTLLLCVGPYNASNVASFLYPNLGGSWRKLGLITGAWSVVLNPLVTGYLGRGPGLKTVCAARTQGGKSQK
row,SMILES,EC50 [nM]
1,"CCOCCOc1cc(C)c(-c2cccc(COc3ccc(C4CC(=O)N[S+]4[O-])cc3)c2)c(C)c1 (mixture of isomers) [Example 1, 5-[4-[[3-[4-(2-ethoxyethoxy)-2,6-dimethylphenyl]phenyl]methoxy]phenyl]-1-oxo-1,2-thi azolidin-3-one]",< 300
2,"Cc1cc(OCC[C@@H](C)O)cc(C)c1-c1cccc(COc2ccc(C3CC(=O)N[S+]3[O-])cc2)c1 (mixture of isomers) [Example 12, 5-[4-[[3-[4-[(3R)-3-hydroxybutoxy]-2,6-dimethylphenyl]phenyl]methoxy]phenyl]-1-oxo-1,2-thiazolidin-3-one]",< 300
3,"Cc1cc(OCCC(C)(C)O)nc(C)c1-c1cccc(COc2ccc(C3CC(=O)NS3(=O)=O)cc2)c1 (racemic) [Example 20, 5-[4-[[3-[6-(3-hydroxy-3-methylbutoxy)-2,4-dimethylpyridin-3-yl]phenyl]methoxy]phenyl]-1,1-dioxo-1,2-thiazolidin-3-one]",300 to 3000
4,"CCOCCOc1cc(C)c(-c2cccc(COc3ccc(C4CC(=O)N[S+]4[O-])cc3)c2)c(C)c1F (centres unmarked) [Example 2, 5-[4-[[3-[4-(2-ethoxyethoxy)-3-fluoro-2,6-dimethylphenyl]phenyl]methoxy]phenyl]-1-oxo-1,2-thiazolidin-3-one]",< 300
5,"Cc1cc(OCCC(C)(C)O)c(F)c(C)c1-c1cccc(COc2ccc(C3CC(=O)N[S+]3[O-])cc2)c1 (centres unmarked) [Example 3, 5-[4-[[3-[3-fluoro-4-(3-hydroxy-3-methylbutoxy)-2,6-dimethylphenyl]phenyl]methoxy]phenyl]-1-oxo-1,2-thiazolidin-3-one]",< 300
6,"Cc1cc(OCCC(C)(C)O)cc(C)c1-c1cccc(COc2ccc(C3CC(=O)N[S+]3[O-])cc2)c1 (centres unmarked) [Example 4, 5-[4-[[3-[4-(3-hydroxy-3-methylbutoxy)-2,6-dimethylphenyl]phenyl]methoxy]phenyl]-1-oxo-1,2-thiazolidin-3-one]",< 300
7,"Cc1cc(OCCC(C)(C)O)nc(C)c1-c1cccc(COc2ccc(C3CC(=O)N[S+]3[O-])cc2)c1 (centres unmarked) [Example 6, 5-[4-[[3-[6-(3-hydroxy-3-methylbutoxy)-2,4-dimethylpyridin-3-yl]phenyl]methoxy]phenyl]-1-oxo-1,2-thiazolidin-3-one]",< 300
8,"Cc1cc(-c2cccc(COc3ccc(C4CC(=O)N[S+]4[O-])cc3)c2)c(C)cc1OCCC(C)(C)O (centres unmarked) [Example 7, 5-[4-[[3-[4-(3-hydroxy-3-methylbutoxy)-2,5-dimethylphenyl]phenyl]methoxy]phenyl]-1-oxo-1,2-thiazolidin-3-one]",< 300
9,"Cc1cc(OCCCO)cc(C)c1-c1cccc(COc2ccc(C3CC(=O)N[S+]3[O-])cc2)c1 (centres unmarked) [Example 8, 5-[4-[[3-[4-(3-hydroxypropoxy)-2,6-dimethylphenyl]phenyl]methoxy]phenyl]-1-oxo-1,2-thiazolidin-3-one]",< 300
10,"Cc1cc(OC[C@H](O)CO)cc(C)c1-c1cccc(COc2ccc(C3CC(=O)N[S+]3[O-])cc2)c1 (stereo partly drawn) [Example 9, 5-[4-[[3-[4-[(2R)-2,3-dihydroxypropoxy]-2,6-dimethylphenyl]phenyl]methoxy]phenyl]-1-oxo-1,2-thiazolidin-3-one]",< 300
11,"Cc1cc(OCC(CO)CO)cc(C)c1-c1cccc(COc2ccc(C3CC(=O)N[S+]3[O-])cc2)c1 (centres unmarked) [Example 10, 5-[4-[[3-[4-[3-hydroxy-2-(hydroxymethyl)propoxy]-2,6-dimethylphenyl]phenyl]methoxy]phenyl]-1-oxo-1,2-thiazolidin-3-one]",< 300
12,"Cc1cc(OCCCS(C)(=O)=O)cc(C)c1-c1cccc(COc2ccc(N3CC(=O)NS3(=O)=O)cc2)c1 [Example 15, 5-[4-[[3-[2,6-dimethyl-4-(3-methylsulfonylpropoxy)phenyl]phenyl]methoxy]phenyl]-1,1-dioxo-1,2,5-thiadiazolidin-3-one]",300 to 3000
13,"Cc1cc(OCCC(C)(C)O)cc(C)c1-c1cccc2c1CC[C@H]2Oc1ccc(C2CC(=O)NS(=O)(=O)C2)cc1 (stereo partly drawn) [Example 34, 5-(4-(((R)-4-(4-(3-hydroxy-3-methylbutoxy)-2,6-dimethylphenyl)-2,3-dihydro-1H-inden-1-yl)oxy)phenyl)-1,1-dioxo-1,2-thiazinan-3-one]",< 300

# Continued, values first:
row,EC50 [nM],SMILES
1,< 300,"Cc1cc(OCCCS(C)(=O)=O)cc(C)c1-c1cccc(COc2ccc(C3CC(=O)NS3(=O)=O)cc2)c1 (racemic) [Example 19, 5-[4-[[3-[2,6-dimethyl 4-(3-methylsulfonylpropoxy)phenyl]phenyl]methoxy]phenyl]-1,1-dioxo-1,2-thiazolidin-3-one]"
2,< 300,"Cc1cccc(C)c1-c1cccc(COc2ccc(C3CC(=O)NS(=O)(=O)N3)cc2)c1 (racemic) [Example 21, 5-[4-[[3-(2,6-dimethylphenyl)phenyl]methoxy]phenyl]-1,1-dioxo-1,2,6-thiadiazinan-3-one]"
3,< 300,"Cc1cccc(C)c1-c1cccc(COc2ccc(C3CC(=O)NS(=O)(=O)C3)cc2)c1 (racemic) [Example 22, 5-[4-[[3-(2,6-dimethylphenyl)phenyl]methoxy]phenyl]-1,1-dioxo-1,2-thiazinan-3-one]"
4,300 to 3000,"Cc1nc(OCCC(C)(C)O)ccc1-c1cccc2c1CC[C@H]2Oc1ccc(C2CC(=O)N[S+]2[O-])cc1 (single isomer, unassigned) [23(A)-b]"
5,< 300,"Cc1cc(OCCC(C)(C)O)cc(C)c1-c1cccc2c1CC[C@H]2Oc1ccc(C2CC(=O)N[S+]2[O-])cc1 (single isomer, unassigned) [24(A)-a]"
6,< 300,"Cc1cc(OCCCS(C)(=O)=O)nc(C)c1-c1cccc(COc2ccc(C3CC(=O)N[S+]3[O-])cc2)c1 (centres unmarked) [Example 5, 5-[4-[[3-[2,4-dimethyl-6-(3-methylsulfonylpropoxy)pyridin-3-yl]phenyl]methoxy]phenyl]-1-oxo-1,2-thiazolidin-3-one]"
7,< 300,"Cc1cc(OCCCN)cc(C)c1-c1cccc(COc2ccc(C3CC(=O)N[S+]3[O-])cc2)c1 (centres unmarked) [Example 11, 5-[4-[[3-[4-(3-aminopropoxy)-2,6-dimethylphenyl]phenyl]methoxy]phenyl]-1-oxo-1,2-thiazolidin-3-one trifluoroacetic acid salt]"
8,< 300,"Cc1cc(OCCCS(C)(=O)=O)cc(C)c1-c1cccc(COc2ccc(C3CC(=O)N[S+]3[O-])cc2)c1 (centres unmarked) [Example 13, 5-[4-[[3-[2,6-dimethyl 4-(3-methylsulfonylpropoxy)phenyl]phenyl]methoxy]phenyl]-1-oxo-1,2-thiazolidin-3-one]"
9,< 300,"Cc1cccc(C)c1-c1cccc(COc2ccc(N3CC(=O)NS3(=O)=O)cc2)c1 [Example 14, 5-[4-[[3-(2,6-dimethylphenyl)phenyl]methoxy]phenyl]-1,1-dioxo-1,2,5-thiadiazolidin-3-one]"
10,< 300,"Cc1cccc(C)c1-c1cccc(COc2ccc(N3CC(=O)NS3(=O)=O)c(Cl)c2)c1 [Example 16, 5-[2-chloro-4-[[3-(2,6-dimethylphenyl)phenyl]methoxy]phenyl]-1,1-dioxo-1,2,5-thiadiazolidin-3-one]"
11,< 300,"Cc1cc(OCc2cccc(-c3c(C)cccc3C)c2)ccc1N1CC(=O)NS1(=O)=O [Example 17, 5-[4-[[3-(2,6-dimethylphenyl)phenyl]methoxy]-2-methylphenyl]-1,1-dioxo-1,2,5-thiadiazolidin-3-one]"
12,300 to 3000,"Cc1cccc(C)c1-c1cccc(COc2ccc(N3C(C)C(=O)NS3(=O)=O)cc2)c1 (centres unmarked) [Example 18, 5-[4-[[3-(2,6-dimethylphenyl)phenyl]methoxy]phenyl]-4-methyl-1,1-dioxo-1,2,5-thiadiazolidin-3-one]"
13,< 300,"N#Cc1ccc(Oc2cccc3c2CC[C@H]3Oc2ccc(C3CC(=O)NS(=O)(=O)N3)cc2)cc1 (stereo partly drawn) [Example 26, 4-(((1R)-1-(4-(1,1-dioxo-1,2,6-thiadiazinan-3-on-5-yl)phenoxy)-2,3-dihydro-1H-inden-4-yl)oxy)benzonitrile]"
14,< 300,"O=C1CC(c2ccc(O[C@@H]3CCc4c(Oc5ccccc5)cccc43)cc2)[S+]([O-])N1 (stereo partly drawn) [Example 27, 5-(4-(((R)-4-phenoxy-2,3-dihydro-1H-inden-1-yl)oxy)phenyl)-1-oxo-1,2-thiazolidin-3-one]"
15,300 to 3000,O=C1CC(c2ccc(OC3COc4c3cccc4C(F)(F)F)cc2)[S+]([O-])N1 (centres unmarked) [Example 28]
16,< 300,"O=C1CC(c2ccc(O[C@@H]3CCc4c(Br)cccc43)cc2)[S+]([O-])N1 (stereo partly drawn) [Example 29, 5-(4-(((R)-4-bromo-2,3-dihydro-1H-inden-1-yl)oxy)phenyl)-1-oxo-1,2-thiazolidin-3-one]"
17,< 300,"Cc1cc(OCCCS(C)(=O)=O)cc(C)c1-c1cccc(COc2ccc(C3CC(=O)NS(=O)(=O)C3)cc2)c1 (centres unmarked) [Example 31, 5-[4-[[3-[2,6-dimethyl 4-(3-methylsulfonylpropoxy)phenyl]phenyl]methoxy]phenyl]-1,1-dioxo-1,2-thiazinan-3-one]"
18,< 300,"N#Cc1ccc(Oc2cccc3c2CC[C@H]3Oc2ccc(C3CC(=O)NS(=O)(=O)C3)cc2)cc1 (stereo partly drawn) [Example 32, 4-(((1R)-1-(4-(1,1-dioxo-3-oxo-1,2-thiazinan-5-yl)phenoxy)-2,3-dihydro-1H-inden-4-yl)oxy)benzonitrile]"
19,< 300,"O=C1CC(c2ccc(O[C@@H]3CCc4c(Br)cccc43)cc2)CS(=O)(=O)N1 (stereo partly drawn) [Example 33, 5-(4-(((R)-4-bromo-2,3-dihydro-1H-inden-1-yl)oxy)phenyl)-1,1-dioxo-1,2-thiazinan-3-one]"
